Laboratory results taken from PMC6204823, “Synthesis of 3-aminocoumarin-N-benzylpyridinium conjugates with nanomolar inhibitory activity against acetylcholinesterase” (Beilstein Journal of Organic Chemistry, 2018).

biological target: T1, Electrophorus electricus AChE (Electrophorus electricus, UniProt O42275); test: biochemical; conditions: not given
T1 construct: purchased Sigma-Aldrich, USA Type VI-S
Method: The AChE inhibitory activity of the synthesized compounds was evaluated by Ellman’s method using Electrophorus electricus AChE; donepezil hydrochloride and tacrine were used as the reference compounds.
AChE (Electrophorus electricus, Type VI-S, lyophilized powder) was purchased from Sigma-Aldrich, USA. Acetylthiocholine, 5,5′-dithiobis(2-nitrobenzoic acid), sodium dihydrogen phosphate, disodium hydrogen phosphate, and sodium hydrogen carbonate were obtained from Fluka, Switzerland. AChE inhibitory activity was […]
USA) based on Ellman’s method with slight modifications. For each assay, 200 μL of the assay medium containing 100 μL of 0.1 M phosphate buffer (pH 8), 20 μL of 3.3 mM 5,5′-dithiobis(2-nitrobenzoic acid) in 0.1 M phosphate buffer (pH 7) containing 6 mM NaHCO3, 20 μL of the test compounds at different concentrations in methanol, and 40 μL of 0.15 unit/mL AChE in phosphate buffer (pH 8) were incubated at 37 °C for 20 min. Subsequently, 20 μL of 5 mM acetylthiocholine iodide in water was added, and the absorbance was measured at 412 nm every 20 s for 3 min. The rate of each reaction was calculated by Microplate Manager software.
The blank percentage of inhibition of the tested compounds was determined by comparing the rate of the sample to the blank. The IC50 value was determined by nonlinear regression of the log inhibitor concentration versus the percentage of inhibition using GraphPad Prism6. Donepezil hydrochloride and tacrine were applied as the reference compounds. All samples were assayed in triplicate.

T1 sequence (O42275 24-633): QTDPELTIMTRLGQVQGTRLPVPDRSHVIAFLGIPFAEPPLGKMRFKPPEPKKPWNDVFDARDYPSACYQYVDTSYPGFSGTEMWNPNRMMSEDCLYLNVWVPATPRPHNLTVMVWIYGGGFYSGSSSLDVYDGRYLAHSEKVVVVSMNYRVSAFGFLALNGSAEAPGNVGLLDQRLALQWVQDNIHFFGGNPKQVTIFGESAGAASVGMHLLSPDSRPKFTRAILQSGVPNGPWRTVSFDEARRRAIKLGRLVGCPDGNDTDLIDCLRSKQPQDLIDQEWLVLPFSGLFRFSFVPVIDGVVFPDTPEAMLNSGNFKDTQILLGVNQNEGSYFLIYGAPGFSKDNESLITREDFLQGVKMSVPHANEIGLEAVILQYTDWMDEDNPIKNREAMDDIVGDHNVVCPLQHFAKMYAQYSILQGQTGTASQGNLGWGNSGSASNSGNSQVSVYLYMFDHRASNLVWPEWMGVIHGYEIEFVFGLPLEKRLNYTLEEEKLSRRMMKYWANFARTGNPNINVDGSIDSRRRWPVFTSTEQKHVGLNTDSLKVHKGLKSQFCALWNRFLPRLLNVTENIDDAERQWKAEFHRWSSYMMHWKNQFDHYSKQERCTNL

Structure (SMILES) | fold lower IC50 than donepezil hydrochloride [fold] | fold lower IC50 than tacrine [fold]
COc1cc2cc(NC(=O)c3cc[n+](Cc4cccc(F)c4F)cc3)c(=O)oc2cc1OC.[Br-] [compound 9h] | 35 | 124

same assay, conditions: concentration producing 50% inhibition of enzyme activity; triplicate independent experiments

Structure (SMILES) | IC50 [nM]
COc1cc2cc(NC(=O)c3cc[n+](Cc4cccc(F)c4F)cc3)c(=O)oc2cc1OC.[Br-] [compound 9h] | 1.53 ± 0.01
COc1cc2cc(NC(=O)c3cc[n+](Cc4ccccc4)cc3)c(=O)oc2cc1OC [compound 9a] | 12.5 ± 0.71
COc1cc2cc(NC(=O)c3cc[n+](Cc4ccc(F)cc4)cc3)c(=O)oc2cc1OC [compound 9g] | 5.31 ± 0.38
COc1cc2cc(NC(=O)c3cc[n+](Cc4cccc(Cl)c4)cc3)c(=O)oc2cc1OC [compound 9c] | 11.5 ± 0.63
COc1cc2cc(NC(=O)c3cc[n+](Cc4ccccc4F)cc3)c(=O)oc2cc1OC [compound 9e] | 3.05 ± 0.28
COc1cc2cc(NC(=O)c3cc[n+](Cc4cccc(F)c4)cc3)c(=O)oc2cc1OC [compound 9f] | 5.04 ± 0.26
COc1cc2cc(NC(=O)Cc3cc[n+](Cc4ccccc4)cc3)c(=O)oc2cc1OC [compound 10a] | 1087.7 ± 0.05
COc1cc2cc(NC(=O)c3cc[n+](Cc4c(F)cccc4F)cc3)c(=O)oc2cc1OC [compound 9i] | 2.43 ± 0.18
O=C(Nc1cc2ccccc2oc1=O)c1cc[n+](Cc2ccccc2)cc1 [compound 4a] | 71.9 ± 3.4
COc1cc2cc(NC(=O)c3cc[n+](Cc4ccccc4Cl)cc3)c(=O)oc2cc1OC [compound 9b] | 6.03 ± 0.18
COc1cc2cc(NC(=O)c3cc[n+](Cc4ccc(Cl)cc4)cc3)c(=O)oc2cc1OC [compound 9d] | 293 ± 13.6

same assay, conditions: read-out: % Inhibition at concentration of 1 μM, 1 μM

Structure (SMILES) | inhibition at 1 µM [%]
COc1cc2cc(N)c(=O)oc2cc1OC [compound 8] | 5
O=C(Cc1ccncc1)Nc1cc2ccccc2oc1=O [compound 5] | < 10
COc1cc2cc(NC(=O)Cc3ccncc3)c(=O)oc2cc1OC [compound 10] | < 10
Nc1cc2ccccc2oc1=O [compound 3, 3-aminocoumarin] | 12
COc1cc2cc(NC(=O)c3ccncc3)c(=O)oc2cc1OC [compound 9] | < 10
O=C(Cc1cc[n+](Cc2ccccc2)cc1)Nc1cc2ccccc2oc1=O [compound 5a] | 10

tested on: not listed separately; test: Cytotoxicity against MRC-5 normal embryonic lung cell; assay type: cell-based; conditions: human, MRC-5 normal embryonic lung cells; concentration of 50 μg/mL
From the text: For chlorine as a substituent, the activity followed the order of ortho > meta > para. […] For fluorine as a substituent, the activity also followed the order of ortho > meta ≈ para. […].

Structure (SMILES) | cytotoxicity at 50 μg/mL [%]
COc1cc2cc(NC(=O)c3cc[n+](Cc4cccc(F)c4F)cc3)c(=O)oc2cc1OC.[Br-] [compound 9h] | 0
